This is an account of results in US9187784B2, “EphA4 is a disease modifier in motor neuron disease” (VIB VZW, priority 2011, dated 2015).

Marks after values point to notes of the source that are not given here.

Common to all, as to format: in vivo
For data set [1], the system named is TDP43A315T embryos. Kind of data set: mutant TDP-43-induced motor axonopathy in zebrafish embryos. As for the experimental part:
(§1) FIG. 14: Inhibiting EphA4 signaling rescues motor axonopathies induced by overexpression of mutant TDP-43 and knockdown of Smn. Y-axes show motor axon length of zebrafish embryos (30 hpf) expressing TDP^WT (black bar) or TDP^A315T (white bar) (Panels A, B) or with unaltered (black bar) or reduced expression levels of Smn (white bar) (Panels C, D). Smn knockdown was established by injection of 3 ng (Panel C) or 6 ng (Panel D) atg-smn morpholino. Ctr-smn morpholino was injected as control. RTK1 signaling was inhibited by injection of 3 ng atg-RTK1 morpholino (shaded bars) (Panels A, C) or by treatment with C1 (500 μM, shaded bars) (Panels B, D). Injection of ctr-RTK1 morpholino and application of a 1/250 dilution of DMSO were used as control. ANOVA and Bonferroni's multiple comparison tests were used for statistical analysis: TDP^A315T/atg-RTK1 (n=24) vs. TDP^A315T/ctr-RTK1 (n=34, p=7.86×10^−5, Panel A), TDP^A315T/C1 (n=21) vs. TDP^A315T/DMSO (n=21, p=0.045, Panel B), atg-smn/atg-RTK1 (n=35) vs. atg-smn/ctr-RTK1 (n=35, p=4.93×10^−8, Panel C), atg-smn/C1 (n=91) vs. atg-smn/DMSO (n=105, p=1.27×10^−6, Panel D). Error bars are s.e.m.
Mann-Whitney test was used to determine significance between TDPA315T/ctr-RTK1 (4.5 ng) vs. TDPA315T/atg-RTK1 (4.5 ng, * p=0.001) and between TDPA315T/control vs. TDPA315T/C1 (° p=0.029). Control=1/250 DMSO and C1=500 μM.
(§2) A morpholino database of translation-blocking morpholinos (atg-mo) was used to perform a morpholino-based knockdown screening in a zebrafish model for ALS.^13 The standard control morpholino (5′-[…]-′3) (SEQ ID NO:4), provided by Gene tools, was used as control. Three nanograms of morpholino were co-injected with […] of SOD1 mRNA and the effect of gene knockdown on the mutant SOD1-induced axonopathy analyzed. Each morpholino was tested in two separate experiments. Only morphologically normal embryos were included for further analysis. Overexpression of SOD1 or TDP-43, applied to validate the protective morpholino, was established by injection of 1.76 ng SOD1 mRNA or 1.43 ng TDP-43 mRNA, respectively. Antisense morpholinos to knockdown zebrafish RTK1, RTK2, Smn and their five base pair-mismatch control morpholinos were developed by Gene tools: atg-RTK1 (5′-[…]-′3) (SEQ ID NO:5), atg-RTK2 (5′-[…]-[…]-′3) (SEQ ID NO:6), splice-RTK2 (5′-[…]-[…]-′3) (SEQ ID NO:7) and atg-smn (5′-[…]-3′) (SEQ ID NO:8). Compound 1 (2,5-dimethylpyrrolyl benzoic acid, Matrix Scientific) dissolved in DMSO was added to the water of 6-hpf-old zebrafish embryos.

Data set [2] deals with non-transgenic or wild-type SOD1-expressing fish. The data set is described as follows: axonal and total body length in non-transgenic or wild-type SOD1-expressing fish. To be noted: zebrafish, average ± s.e.m. As for the experimental part: Y-axes show motor axon length of non-transgenic (black bar) or SOD1WT-expressing (white bar) zebrafish embryos, injected with either atg-RTK2 (shaded bars, Panel A) or atg-RTK1 morpholino (shaded bars, Panel B). Ctr-RTK2 and ctr-RTK1 were used as controls. Error bars are s.e.m.
To identify disease-modifying genes in ALS in an unbiased way, knockdown screening was performed in the mutant SOD1 zebrafish model (reference 13), using a library of 303 translation blocking morpholinos (atg-mo), of which 58 were targeting genes presumed to be neuronally expressed (according to the NCBI database) and 245 randomly chosen targeting genes. […] The morpholino yielding the highest rescue in two separate experiments was studied further. It targets zebrafish receptor tyrosine kinase 2 (RTK2, also known as epha4b), which has 67% identity and 80% homology to the human orthologue EPHA4. Knockdown of RTK2 in fish expressing mutant SOD1 completely and dose-dependently rescued the motor axonopathy (both axonal length and aberrant branching) caused by three different SOD1 mutations: A4V, G93A and G37R (FIG. 1, Panels A-F; Table 2). […] Receptor tyrosine kinase 1 (RTK1, also known as epha4a), the fish paralogue of RTK2, has 83% identity and 92% homology to human EPHA4. RTK1 knockdown was dose-dependently and equally protective as RTK2 knockdown (FIG. 1, Panel G; Table 4). […]

The test system of data set [3] is zebrafish embryos with knockdown of Smn. The data set is described as follows: rescue of motor axon phenotype induced by knockdown of Smn (SMA model). As for the experimental part:
as §1, with “ANOVA and Bonferroni's multiple comparison tests were used for statistical analysis: TDP^A315T/atg-RTK1 (n=24) vs. TDP^A315T/ctr-RTK1 (n=34, p=7.86×10^−5, Panel A), TDP^A315T/C1 (n=21) vs. TDP^A315T/DMSO (n=21, p=0.045, Panel B), atg-smn/atg-RTK1 (n=35) vs. atg-smn/ctr-RTK1 (n=35, p=4.93×10^−8, Panel C), atg-smn/C1 (n=91) vs. atg-smn/DMSO (n=105, p=1.27×10^−6, Panel D). Error bars are s.e.m.” left out
A morpholino database of translation-blocking morpholinos (atg-mo) was used to perform a morpholino-based knockdown screening in a zebrafish model for ALS.^13 The standard control morpholino (5′-[…]-′3) (SEQ ID NO:4), provided by Gene tools, was used as control. Three nanograms of morpholino were co-injected with 1.43 ng of SOD1 mRNA and the effect of gene knockdown on the mutant SOD1-induced axonopathy analyzed. […]

Data set [4] has as its system zebrafish embryos. Kind of data set: Toxicity analysis of Compound 1 in zebrafish embryos (total body shape). The conditions noted are these: for death: read at 30 hpf; for malformed / normal: zebrafish, in vivo, 24 h. As for the experimental part:
Different concentrations of C1 were dissolved in the water of 6 hpf-old zebrafish embryos. At 30 hpf, toxicity (%) of C1 was investigated by analyzing total body shape of the embryos.
as §2

In the case of “5′-CTGTGAACACAAGCGCAGCCATTGG-′3 (all phosphorodiamidate morpholino (PMO)) [atg-RTK1]”, the “% affected embryos” value in data set [1] (TDPA315T embryos, morpholino 4.5 ng) is 11* (43) %; in data set [1] (TDPWT embryos, morpholino 4.5 ng), 9 (42) %. Besides, the “effect on outgrowth deficit and aberrant branching induced by mutant TDP-43” value in data set [1] (zebrafish embryos) is “rescued the outgrowth deficit and aberrant branching induced by mutant TDP-43”. Moreover, the body length in data set [2] is recorded as 2.61±0.01 mm. The “effect on motor axon phenotype induced by knockdown of Smn” value in data set [3] is listed as “rescued the motor axon phenotype induced by knockdown of Smn”.

Regarding `Cc1ccc(C)n1-c1ccc(C(=O)O)c(O)c1` [Compound C1], the death in data set [4] (C1 250 μM in water from 6 hpf) was determined as 6.12%; in data set [4] (C1 500 μM in water from 6 hpf), 2.80%; in data set [4] (C1 750 μM in water from 6 hpf), 11.2%; in data set [4] (C1 1000 μM in water from 6 hpf), 20%. Moreover, the malformed in data set [4] (250 μM) is reported as 5.10%; in data set [4] (500 μM) it was 3.74%; in data set [4] (750 μM), 12.93%; in data set [4] (1000 μM), 80%. Moreover, the normal in data set [4] (250 μM) was 88.77%; in data set [4] (500 μM), 93.45%; in data set [4] (750 μM), 75.86%; in data set [4] (1000 μM) it was 0%. Moreover, the “% affected embryos” value in data set [1] (TDPA315T embryos, C1 500 μM) was 25° (16) %; in data set [1] (TDPWT embryos, C1 500 μM) it was 33 (36) %.
